Tests used:
Type in all cases: functional
[1] = system: HT-29; assay: Growth inhibition of human HT-29 cells
[2] = system: MDA-MB-435; assay: Growth inhibition of human MDA-MB-435 cells
[3] = system: SF-295; assay: Growth inhibition of human SF295 cells
[4] = system: SF-539; assay: Growth inhibition of human SF539 cells
[5] = system: NCI-H460; assay: Growth inhibition of human NCI-H460 cells
[6] = system: EKVX; assay: Growth inhibition of human EKVX cells
[7] = system: U-251; assay: Growth inhibition of human U251 cells
[8] = system: 786-0; assay: Growth inhibition of human 786-0 cells
[9] = system: CAKI-1; assay: Growth inhibition of human Caki1 cells
[10] = system: MCF7; assay: Growth inhibition of human MCF7 cells
[11] = system: UACC-62; assay: Growth inhibition of human UACC62 cells
[12] = system: OVCAR-3; assay: Growth inhibition of human OVCAR-3 cells
[13] = system: CCRF-CEM; assay: Growth inhibition of human CCRF-CEM cells
[14] = system: P388; assay: Growth inhibition of mouse P388 cells assessed as zone units at 50 ug/disk by disk diffusion agar colony formation assay
[15] = system: SK-MEL-28; assay: Growth inhibition of human SK-MEL-28 cells
[16] = system: NCI-H23; assay: Growth inhibition of human NCI-H23 cells
[17] = system: A498; assay: Growth inhibition of human A498 cells
[18] = system: Malme-3M; assay: Growth inhibition of human MALME-3M cells
[19] = system: SK-OV-3; assay: Growth inhibition of human SKOV3 cells
[20] = system: SNB-75; assay: Growth inhibition of human SNB75 cells
[21] = system: M14; assay: Growth inhibition of human M14 cells
[22] = system: HL-60(TB); assay: Growth inhibition of human HL-60(TB) cells
[23] = system: MDA-MB-231; assay: Growth inhibition of human MDA-MB-231 cells
[24] = system: SN12C; assay: Growth inhibition of human SN12C cells
[25] = Growth inhibition of human Hs 578T cells
[26] = system: HOP-62; assay: Growth inhibition of human HOP62 cells
[27] = system: NCI-H522; assay: Growth inhibition of human NCI-H522 cells
[28] = system: OVCAR-5; assay: Growth inhibition of human OVCAR5 cells
[29] = system: T47D; assay: Growth inhibition of human T47D cells
[30] = system: BT-549; assay: Growth inhibition of human BT549 cells
[31] = system: UACC-257; assay: Growth inhibition of human UACC257 cells
[32] = system: HOP-92; assay: Growth inhibition of human HOP92 cells
[33] = system: HCT-116; assay: Growth inhibition of human HCT116 cells
[34] = Growth inhibition of human MCF7/ADR resistant cells; settings: NCI/ADR-RES
[35] = system: HCC 2998; assay: Growth inhibition of human HCC2998 cells
[36] = system: MDA-N; assay: Growth inhibition of human MDA-N cells
[37] = system: L1210; assay: Growth inhibition of mouse L1210 cells assessed as zone units at 50 ug/disk by disk diffusion agar colony formation assay
[38] = system: DU-145; assay: Growth inhibition of human DU145 cells
[39] = system: KM12; assay: Growth inhibition of human KM12 cells
[40] = system: NCI-H226; assay: Growth inhibition of human NCI-H226 cells
[41] = system: A549; assay: Growth inhibition of human A549 cells
[42] = system: UO-31; assay: Growth inhibition of human UO31 cells
[43] = system: SK-MEL-2; assay: Growth inhibition of human SK-MEL-2 cells
[44] = system: IGROV-1; assay: Growth inhibition of human IGROV1 cells
[45] = Growth inhibition of mouse M17/ADR cells assessed as zone units at 50 ug/disk by disk diffusion agar colony formation assay
[46] = Growth inhibition of human H116 cells assessed as zone units at 50 ug/disk by disk diffusion agar colony formation assay
[47] = system: SK-MEL-5; assay: Growth inhibition of human SK-MEL-5 cells
[48] = system: SNB-19; assay: Growth inhibition of human SNB19 cells
[49] = system: NCI-H322M; assay: Growth inhibition of human NCI-H322M cells
[50] = system: MOLT-4; assay: Growth inhibition of human MOLT4 cells
[51] = system: SR; assay: Growth inhibition of human SR cells
[52] = system: ACHN; assay: Growth inhibition of human ACHN cells
[53] = system: OVCAR-8; assay: Growth inhibition of human OVCAR8 cells
[54] = system: SW-620; assay: Growth inhibition of human SW620 cells
[55] = Growth inhibition of human […] cells
[56] = system: HCT-15; assay: Growth inhibition of human HCT15 cells
[57] = system: RXF 393; assay: Growth inhibition of human […] cells
[58] = system: OVCAR-4; assay: Growth inhibition of human OVCAR4 cells
[59] = system: PO3; assay: Growth inhibition of mouse PO3 cells assessed as zone units at 50 ug/disk by disk diffusion agar colony formation assay
[60] = system: COLO 205; assay: Growth inhibition of human COLO205 cells
[61] = system: TK-10; assay: Growth inhibition of human TK10 cells
[62] = system: MC-38; assay: Growth inhibition of mouse C38 cells assessed as zone units at 50 ug/disk by disk diffusion agar colony formation assay
[63] = system: CX-1; assay: Growth inhibition of human CX-1 cells assessed as zone units at 50 ug/disk by disk diffusion agar colony formation assay
[64] = system: PC-3; assay: Growth inhibition of human PC3 cells
[65] = system: K562; assay: Growth inhibition of human K562 cells
[66] = system: LOX IMVI; assay: Growth inhibition of human LOXIMVI cells

CC(=O)CC/C=C(\C)CCC1=C(C)CCCC1(C)C
GI50 [1]: > 15 µM | GI50 [2]: > 15 µM | GI50 [3]: > 15 µM | GI50 [4]: > 15 µM | GI50 [5]: > 15 µM | GI50 [6]: > 15 µM | GI50 [7]: > 15 µM | GI50 [8]: > 15 µM | GI50 [9]: > 15 µM | GI50 [10]: > 15 µM | GI50 [11]: > 15 µM | GI50 [12]: > 15 µM | GI50 [13]: 2.94 µM | Activity [14]: 60 Zone units | GI50 [15]: > 15 µM | GI50 [16]: > 15 µM | GI50 [17]: > 15 µM | GI50 [18]: > 15 µM | GI50 [19]: > 15 µM | GI50 [20]: 5.15 µM | GI50 [21]: < 0.0015 µM | GI50 [22]: 2.88 µM | GI50 [23]: > 15 µM | GI50 [24]: 9.48 µM | GI50 [25]: 1.86 µM | GI50 [26]: > 15 µM | GI50 [27]: > 15 µM | GI50 [28]: > 15 µM | GI50 [29]: > 15 µM | GI50 [30]: > 15 µM | GI50 [31]: > 15 µM | GI50 [32]: > 15 µM | GI50 [33]: > 15 µM | GI50 [34]: > 15 µM | GI50 [35]: > 15 µM | GI50 [36]: > 15 µM | Activity [37]: 60 Zone units | GI50 [38]: > 15 µM | GI50 [39]: 8.61 µM | GI50 [40]: > 15 µM | GI50 [41]: > 15 µM | GI50 [42]: > 15 µM | GI50 [43]: > 15 µM | GI50 [44]: 9.53 µM | Activity [45]: 0 Zone units | Activity [46]: 30 Zone units | GI50 [47]: > 15 µM | GI50 [48]: < 0.0015 µM | GI50 [49]: > 15 µM | GI50 [50]: 2.08 µM | GI50 [51]: 4.94 µM | GI50 [52]: > 15 µM | GI50 [53]: > 15 µM | GI50 [54]: 6.34 µM | GI50 [55]: > 15 µM | GI50 [56]: > 15 µM | GI50 [57]: > 15 µM | GI50 [58]: > 15 µM | Activity [59]: 40 Zone units | GI50 [60]: > 15 µM

C=C1CCCC(C)(C)C1CCC1(C)CC[C@H]([C@@H](C)C(=O)O)OO1 (single isomer, unassigned) [NAPAPUIN B]
GI50 [1]: 9.26 µM | GI50 [2]: 2.69 µM | GI50 [3]: 5.44 µM | GI50 [4]: 3.28 µM | GI50 [5]: 1.83 µM | GI50 [6]: 3.19 µM | GI50 [7]: 4.33 µM | GI50 [8]: 0.94 µM | GI50 [9]: 2 µM | GI50 [10]: > 12.5 µM | GI50 [11]: 9.24 µM | GI50 [61]: 4.06 µM | GI50 [12]: 2.49 µM | Activity [62]: 300 Zone units | GI50 [13]: 1.76 µM | Activity [14]: 230 Zone units | GI50 [15]: > 12.5 µM | GI50 [16]: 7.61 µM | GI50 [17]: > 12.5 µM | GI50 [18]: > 12.5 µM | GI50 [19]: 9.24 µM | GI50 [20]: 3.39 µM | GI50 [21]: 12.2 µM | GI50 [22]: 1.63 µM | GI50 [23]: 7.44 µM | GI50 [24]: 11.3 µM | GI50 [25]: 8.74 µM | GI50 [26]: 2.11 µM | GI50 [27]: 1.21 µM | GI50 [28]: > 12.5 µM | Activity [63]: 200 Zone units | GI50 [29]: 3.35 µM | GI50 [30]: 1.05 µM | GI50 [31]: > 12.5 µM | GI50 [32]: 2.23 µM | GI50 [33]: 5.19 µM | GI50 [34]: 8.78 µM | GI50 [35]: 6.78 µM | GI50 [36]: 3.52 µM | Activity [37]: 230 Zone units | GI50 [38]: 2.71 µM | GI50 [39]: 4.82 µM | GI50 [40]: 12.5 µM | GI50 [41]: 3.05 µM | GI50 [64]: > 12.5 µM | GI50 [42]: 4.31 µM | GI50 [43]: 5.06 µM | GI50 [65]: 3.3 µM | GI50 [44]: 0.63 µM | Activity [45]: 330 Zone units | GI50 [47]: 6.14 µM | GI50 [48]: > 12.5 µM | GI50 [49]: 12.5 µM | GI50 [50]: 2.16 µM | GI50 [51]: 1.8 µM | GI50 [52]: 7.83 µM | GI50 [66]: 0.25 µM | GI50 [53]: > 12.5 µM | GI50 [54]: 7.23 µM | GI50 [55]: 3.91 µM | GI50 [56]: 10.7 µM | GI50 [57]: 5.04 µM | GI50 [58]: 2.4 µM | GI50 [60]: 8.31 µM

Reference: ChEMBL document CHEMBL1141727, “Isolation and cytotoxic evaluation of marine sponge-derived norterpene peroxides” (J Nat Prod, 1998)
